Experiment: solvent given as SMILES

Compound: Cc1cccc2nc3c(=O)[nH]c(=O)[nH]c3nc12
- emission maximum (in C1COCCO1): 437 nm
- emission maximum (in CC#N): 449 nm
- emission maximum (in CCO): 465 nm
- emission maximum (in CO): 469 nm
- emission maximum (in ClCCCl): 450 nm
- emission maximum (in O): 495 nm

Compound: CCN(CC)c1ccc2cc(/C=C/c3ccccc3)c(=O)oc2c1
- emission maximum (in CC#N): 477 nm

Compound: CC1(C)c2ccccc2N(c2ccc3c(c2)c2cc(N4c5ccccc5C(C)(C)c5ccccc54)cc4c5ccccc5n3c42)c2ccccc21
- emission maximum (in C1CCCCC1): 427.57 nm
- emission maximum (in C1CCOC1): 481.94 nm
- emission maximum (in Cc1ccccc1): 449 nm

Compound: CN(C)c1ccc2c3c(ccc2c1)C(=O)CCC3
- emission maximum (in C1CCCCC1): 407 nm
- emission maximum (in CC#N): 448 nm
- emission maximum (in CC(C)O): 482 nm
- emission maximum (in CCC(C)=O): 443 nm
- emission maximum (in CCO): 489 nm
- emission maximum (in CCOC(C)=O): 429 nm
- emission maximum (in CS(C)=O): 453 nm
- emission maximum (in Cc1ccccc1): 417 nm
- emission maximum (in ClCCl): 440 nm
- emission maximum (in Clc1ccccc1): 423 nm

Compound: O=Cc1nc2ccc(C#Cc3ccc(N(c4ccccc4)c4ccccc4)cc3)cc2s1
- emission maximum (in Cc1ccccc1): 519 nm

Compound: CCCCCCN1C(=O)c2cccc3cc(/N=C\c4cn(C)c5ccccc45)cc(c23)C1=O
- emission maximum (in ClC(Cl)Cl): 500 nm

Compound: CCN(CC)c1ccc2cc(C#N)c(=O)oc2c1
- emission maximum (in ClCCl): 460 nm

Compound: Fc1ccccc1-c1nc2sc3ccccc3c2s1
- emission maximum (in CS(C)=O): 407 nm

Compound: CC/[NH+]=c1\cc2oc3cc(NCCN)c4ccccc4c3nc-2cc1C
- emission maximum (in CCO): 647 nm
- emission maximum (in O): 647 nm

Compound: C(=C\c1c[nH]cn1)/c1cc[n+]2ccc(/C=C/c3c[nH]cn3)cc2c1
- emission maximum (in CO): 527 nm

Compound: Cc1cc(C)c2c(c1)nc1c(=O)n(C)c(=O)nc-1n2C
- emission maximum (in CC#N): 552 nm

Compound: c1ccc2c(c1)-c1ccccc1[Si]21c2ccccc2-c2cc3c(cc21)-c1ccccc1[Si]31c2ccccc2-c2ccccc21
- emission maximum (in ClCCl): 408 nm

Compound: c1ccc([Si]2(c3ccccc3)c3ccccc3-c3cc4c(cc32)-c2ccccc2[Si]4(c2ccccc2)c2ccccc2)cc1
- emission maximum (in ClCCl): 395 nm

Compound: CC(C)(C)OC(=O)NC(Cc1ccccc1)C(=O)OCc1ccc2c3cccc4cccc(c5cccc1c52)c43 (stereo not given)
- emission maximum (in CCO): 447 nm

Compound: COc1cc2c(cc1-c1ccc(C=O)cc1)Cc1c3c(c4c(c1-2)-c1cc(OC)c(-c2ccc(C=O)cc2)cc1C4)C(=O)N(CCC(C)C)C3=O
- emission maximum (in C1CCOC1): 462 nm

Compound: CC(C)(C)c1ccc2c(c1)c1cc(C(C)(C)C)ccc1n2-c1cccc2c1Oc1c(-c3nc(-c4ccccc4)nc(-c4ccccc4)n3)cccc1C2(C)C
- emission maximum (in C1CCCCC1): 428 nm
- emission maximum (in CC(C)=O): 503 nm
- emission maximum (in Cc1ccccc1): 451 nm
- emission maximum (in ClC(Cl)Cl): 489 nm

Compound: Oc1cccc(/N=C/c2ccccc2Oc2ccccc2)c1
- emission maximum (in C1CCCCC1): 402 nm
- emission maximum (in C1COCCO1): 406 nm
- emission maximum (in CC#N): 395 nm
- emission maximum (in CC(C)=O): 415 nm
- emission maximum (in CC(C)CO): 387 nm
- emission maximum (in CC(C)O): 406 nm
- emission maximum (in CCCCC): 403 nm
- emission maximum (in CCCCCCCCO): 410 nm
- emission maximum (in CCCCCCCO): 410 nm
- emission maximum (in CCCCCCO): 400 nm
- emission maximum (in CCCCO): 416 nm
- emission maximum (in CCCCOC(C)=O): 404 nm
- emission maximum (in CCCO): 395 nm
- emission maximum (in CCOC(C)=O): 420 nm
- emission maximum (in CCOCC): 404 nm
- emission maximum (in CO): 380 nm
- emission maximum (in CS(C)=O): 396 nm
- emission maximum (in Cc1ccccc1): 412 nm
- emission maximum (in Cc1ccccc1C): 403 nm
- emission maximum (in ClC(Cl)Cl): 415 nm
- emission maximum (in ClCCl): 407 nm
- emission maximum (in N#Cc1ccccc1): 385 nm
- emission maximum (in OCCO): 418 nm
- emission maximum (in c1ccccc1): 414 nm

Compound: COc1ccc2oc(-c3cc4cc(OC)ccc4oc3=O)cc2c1
- emission maximum (in CC#N): 480 nm
- emission maximum (in CCOC(C)=O): 443 nm
- emission maximum (in CS(C)=O): 484 nm
- emission maximum (in Cc1ccccc1): 446 nm

Compound: COc1ccc2cc(/C=C/C3=[O+][B-](F)(F)OC(/C=C/c4ccc5cc(OC)ccc5c4)=C3c3ccccc3)ccc2c1
- emission maximum (in ClCCl): 600 nm

Compound: CC(C)[Si](C#Cc1c2cc3ccccc3cc2c(C#Cc2ccc(Br)cc2)c2cc3ccccc3cc12)(C(C)C)C(C)C
- emission maximum (in ClCCl): 663 nm

Compound: c1ccc(COc2cc(C[n+]3ccc(-c4cc[n+](Cc5cc(OCc6ccccc6)cc(OCc6ccccc6)c5)cc4)cc3)cc(OCc3ccccc3)c2)cc1
- emission maximum (in CC#N): 365 nm

Compound: CC(C)(C)C1Nc2ccccc2C(=O)N1c1ccccc1 (stereo not given)
- emission maximum (in CC#N): 417 nm
- emission maximum (in CCCCCCCCCCCCCCCC): 388 nm
- emission maximum (in CO): 449 nm
- emission maximum (in ClC(Cl)Cl): 409 nm
- emission maximum (in c1ccccc1): 400 nm

Compound: CCN1C(=CC2=C([O-])C(=CC3=[N+](CC)c4ccccc4C3(C)C)C2=O)C(C)(C)c2ccccc21
- emission maximum (in CO): 644 nm
- emission maximum (in ClC(Cl)Cl): 645 nm

Compound: CC(=O)OC[C@@H]1O[C@H](N2C=CC3=Nc4nc(C)[n+](C)cc4CN3C2=O)[C@@H](O)[C@H]1O
- emission maximum (in CC#N): 416 nm
- emission maximum (in CCO): 418 nm
- emission maximum (in O): 414 nm

Compound: CCCCCCCCN1C(=O)c2ccc3c4c(-c5ccc(-n6c7ccccc7c7ccccc76)cc5)cc5c6c(ccc(c7c(-c8ccc(-n9c%10ccccc%10c%10ccccc%109)cc8)cc(c2c37)C1=O)c64)C(=O)N(CCCCCCCC)C5=O
- emission maximum (in ClC(Cl)Cl): 651 nm

Compound: CC(C)[Si](C#Cc1c2nsnc2c(C#C[Si](C(C)C)(C(C)C)C(C)C)c2nc3c(nc12)C1c2ccccc2C3c2ccccc21)(C(C)C)C(C)C
- emission maximum (in CCCCCC): 526 nm

Compound: COc1ccc2cc(C3=[N+]4C(=Nc5c(-c6ccccc6)cc(-c6ccc7cc(OC)ccc7c6)n5[B-]4(F)F)C(c4ccccc4)=C3Br)ccc2c1
- emission maximum (in ClC(Cl)Cl): 728 nm
- emission maximum (in ClCCl): 728 nm

Compound: CC[n+]1c(-c2ccccc2)c2cc(NC(=O)N[C@H]3C[C@@H]([NH3+])[C@H](O)[C@@H](O)[C@@H]3O)ccc2c2ccc(NC(=O)N[C@@H]3C[C@H]([NH3+])[C@@H](O)[C@@H](O)[C@H]3O)cc21
- emission maximum (in O): 522 nm

Compound: CCCCOc1c(-c2ccc(N(c3ccccc3)c3ccccc3)cc2)cc2cc(-c3ccc(N(c4ccccc4)c4ccccc4)cc3)c(OCCCC)c3c4c(OCCCC)c(-c5ccc(N(c6ccccc6)c6ccccc6)cc5)cc5cc(-c6ccc(N(c7ccccc7)c7ccccc7)cc6)c(OCCCC)c(c1c23)c54
- emission maximum (in ClCCl): 490 nm

Compound: COc1ccc2c(c1)c1cc(OC)ccc1n2-c1cc(Cl)c([C](c2c(Cl)cc(Cl)cc2Cl)c2c(Cl)cc(Cl)cc2Cl)c(Cl)c1
- emission maximum (in C1CCCCC1): 728 nm

Compound: CCC12C(=C3C(=C4c5ccc(-c6ccc(C(C)=O)cc6)cc5S(=O)(=O)C41CC)C(F)(F)C(F)(F)C3(F)F)c1ccc(-c3ccc(C(C)=O)cc3)cc1S2(=O)=O (stereo not given)
- emission maximum (in C1COCCO1): 561.95 nm

Compound: CCCC1=Cc2nc1ccc1[nH]c(cc1CCC)c1nc(c(NC(=O)CCCC(=O)O)cc3[nH]c2cc3CCC)C(CCC)=C1
- emission maximum (in ClCCl): 680 nm

Compound: Cc1ccc(-c2ccc(/C=C/c3ccc([N+](=O)[O-])cc3)cn2)nc1
- emission maximum (in CC#N): 551 nm

Compound: c1ccc2sc(-c3ccc(-c4nnc(-c5ccc(-c6nnc(-c7ccc(-c8cc9ccccc9s8)s7)o6)cc5)o4)s3)cc2c1
- emission maximum (in C1COCCO1): 397 nm
- emission maximum (in CC#N): 399 nm
- emission maximum (in CC(=O)N(C)C): 406 nm
- emission maximum (in CCCCCCCCCCO): 389 nm
- emission maximum (in CCCCCCCCO): 399 nm
- emission maximum (in CCCCCCO): 399 nm
- emission maximum (in CCCCO): 399 nm
- emission maximum (in CCO): 400 nm
- emission maximum (in CS(C)=O): 423 nm
- emission maximum (in Cc1ccccc1): 399 nm
- emission maximum (in ClC(Cl)Cl): 399 nm

Compound: COC(C)CC1=N/C(=C\c2cccc(N(C)C)c2)C(=O)N1C (stereo not given)
- emission maximum (in C1CCOC1): 569 nm
- emission maximum (in CC#N): 632 nm
- emission maximum (in CCCCCC): 495 nm

Compound: COc1ccc(N(c2ccc(OC)cc2)c2ccc3c4cccc5c(N(c6ccc(OC)cc6)c6ccc(OC)cc6)ccc(c6cccc2c63)c54)cc1
- emission maximum (in C1CCCCC1): 551 nm
- emission maximum (in C1CCOC1): 583 nm
- emission maximum (in CC#N): 598 nm
- emission maximum (in Cc1ccccc1): 574 nm
- emission maximum (in ClCCl): 591 nm

Compound: Cn1nc(-c2ccccc2)cc1-c1ccccc1
- emission maximum (in ClCCl): 338 nm

Compound: COc1cc(N(CC(=O)[O-])CC(=O)[O-])c2ncccc2c1
- emission maximum (in O): 487 nm

Compound: CC(C)(C)c1ccc2c(c1)sc1[n+]2[B-](F)(F)n2c(c3cccc4c(Br)ccc2c43)=N1
- emission maximum (in C1CCOC1): 520 nm
- emission maximum (in CC#N): 519 nm
- emission maximum (in CCCCCC): 516 nm
- emission maximum (in Cc1ccccc1): 524 nm
- emission maximum (in ClCCl): 552 nm

Compound: COc1ccc(-c2ccc(C(=O)NC(C)(C)C)c3c2ccc2c4ccccc4c4ccccc4c23)cc1
- emission maximum (in ClCCl): 420 nm

Compound: Cc1ccc(C2=C3C=CC([Se]c4ccccc4)=[N+]3[B-](F)(F)n3c([Se]c4ccccc4)ccc32)cc1
- emission maximum (in C1CCOC1): 609 nm

Compound: Cc1ccccc1-c1ccccc1C
- emission maximum (in C1CCCCC1): 318.98 nm

Compound: CN(C)c1cc2c(cc1F)c(=O)c1cc(F)c(N(C)C)cc1n2C
- emission maximum (in CCO): 441 nm

Compound: COc1cc2c(cc1-c1ccc(C(F)(F)F)cc1)Cc1c3c(c4c(c1-2)-c1cc(OC)c(-c2ccc(C(F)(F)F)cc2)cc1C4)C(=O)N(CCC(C)C)C3=O
- emission maximum (in C1CCOC1): 458 nm

Compound: c1ccc2c(c1)Cc1c-2sc2c1Cc1ccccc1-2
- emission maximum (in C1CCOC1): 385 nm

Compound: O=c1cc(-c2ccccc2)oc(-c2nc3ccccn3c2NC2CCCCC2)c1
- emission maximum (in ClCCl): 475 nm

Compound: Cc1ccc(C2=C3C=C(I)C=[N+]3[B-](F)(F)n3c2cc(I)c3I)cc1
- emission maximum (in C1CCCCC1): 577.5 nm
- emission maximum (in CC#N): 578 nm
- emission maximum (in CCO): 582 nm
- emission maximum (in CCOC(C)=O): 578.5 nm
- emission maximum (in CO): 580 nm
- emission maximum (in OCC(F)(F)F): 576 nm

Compound: COc1ccc(-c2c3nc(cc4ccc([nH]4)c(-c4ccc(OC)c(OCC(=O)O)c4)c4nc(cc5ccc2[nH]5)CC4)CC3)cc1OCC(=O)O
- emission maximum (in CS(C)=O): 738 nm

Compound: Cc1ccc(-n2c(-c3cccc4cc[nH]c34)nc3c4ccccc4c4ccccc4c32)cc1
- emission maximum (in Cc1ccccc1): 377 nm

Compound: N#Cc1c(-n2c3ccccc3c3ccccc32)c(-n2c3ccccc3c3ccccc32)c(C#N)c(-n2c3ccccc3c3ccccc32)c1-n1c2ccccc2c2ccccc21
- emission maximum (in Cc1ccccc1): 535 nm

Compound: Clc1ccc(-c2nc(-c3ccccc3)sc2N(c2ccccc2)c2ccccc2)cc1
- emission maximum (in ClC(Cl)Cl): 463 nm
